Reference: US5705487A, “Antithrombotic agents” (priority 1995, dated 1998)
Counter-ions that a name gives are not always drawn.

What was measured:
Type in all cases: biochemical
[1] = tested on: Human Plasma; assay: Human plasma anticoagulation, thrombin time (TT); details: concentration required to double the clotting time
Protocol: (§1) Dog plasma and rat plasma is obtained from conscious mixed-breed hounds (either sex, Hazelton-LRE, Kalamazoo, Mich., U.S.A.) or from anesthetized male Sprague-Dawley rats (Harlan Sprague-Dawley, Inc., Indianapolis, Ind., U.S.A.) by venipuncture into 3.8 percent citrate. Fibrinogen is prepared from in-date ACD human blood as the fraction I-2 according to previous procedures and specifications. […] Human fibrinogen is also purchased as 98 percent pure/plasmin free from American Diagnostica, Greenwich, Conn. Coagulation reagents ACTIN, Thromboplastin, and Human plasma are from Baxter Healthcare Corp., Dade Division, Miami, Fla. Bovine thrombin from Parke-Davis ([…], Mich.) is used for coagulation assays in plasma.
(§2) Coagulation assay procedures are as previously described. […] A CoAScreener coagulation instrument (American LABor, Inc.) is used for all coagulation assay measurements. The prothrombin time (PT) is measured by adding 0.05 mL saline and 0.05 mL Thromboplastin-C reagent to 0.05 mL test plasma. The activated partial thromboplastin time (APTT) is measured by incubation of 0.05 mL test plasma with 0.05 mL Actin reagent for 120 seconds followed by 0.05 mL CaCl2 (0.02M). The thrombin time (TT) is measured by adding 0.05 mL saline and 0.05 mL thrombin (10 NIH units/mL) to 0.05 mL test plasma. The compounds of Formula I are added to human or animal plasma over a wide range of concentrations to determine prolongation effects on the APTT, PT, and TT assays. Linear extrapolations are performed to estimate the concentrations required to double the clotting time for each assay.

[2] = biological target: Human Thrombin (Homo sapiens, UniProt P00734); assay: Inhibition of the amidase activity of thrombin (Kass); details: chromogenic substrate N-benzoyl-Phe-Val-Arg-p-nitroanilide; mean over range of concentrations
Protocol: The 150 μL of an aqueous solution of the chromogenic substrate (at 0.25 mg/mL) are added and the rates of hydrolysis of the substrate are measured by monitoring the reactions at 405 nm for the release of p-nitroaniline. Standard curves are constructed by plotting free thrombin concentration against hydrolysis rate. […] The amount of free inhibitor in each assay is calculated by subtracting the number of moles of bound thrombin from the number of moles of added inhibitor (test compound).
The Kass value is the hypothetical equilibrium constant for the reaction between thrombin and the test compound (I).
Kass is calculated for a range of concentrations of test compounds and the mean value is reported in units of liter per mole.

[3] = tested on: Human Plasma; assay: Human plasma anticoagulation, prothrombin time (PT); details: concentration required to double the clotting time
Protocol: as §1, §2

[4] = biological target: T1, Bovine trypsin (Bos taurus, UniProt P00760); assay: Kass, trypsin chromogenic substrate assay; details: substrate N-Benzoyl-Phe-Val-Arg-p-nitroanilide
T1 construct: Bovine trypsin is purchased from Worthington Biochemicals; purchased Worthington Biochemicals, Freehold, N.J
T1 sequence (P00760 24-246): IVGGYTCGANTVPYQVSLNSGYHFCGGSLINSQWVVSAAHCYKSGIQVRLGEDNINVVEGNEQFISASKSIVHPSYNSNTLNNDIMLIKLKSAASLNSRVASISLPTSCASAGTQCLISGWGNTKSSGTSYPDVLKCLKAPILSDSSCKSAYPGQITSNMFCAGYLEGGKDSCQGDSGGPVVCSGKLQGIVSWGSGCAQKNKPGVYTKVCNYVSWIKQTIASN

[5] = tested on: Human Plasma; assay: Human plasma anticoagulation, activated partial thromboplastin time (APTT); details: concentration required to double the clotting time
Protocol: as §1, §2

| Compound | Human Plasma Anticoagulation 2x Clotting time TT [1] [ng/mL] | Kass × 10^6 (L/mole) Human Thrombin [2] | Human Plasma Anticoagulation 2x Clotting time PT [3] | Kass × 10^6 (L/mole) Trypsin [4] | Human Plasma Anticoagulation 2x Clotting time APTT [5] |
| --- | --- | --- | --- | --- | --- |
| 1-Piq-Pro-p-NHCH2 C6 H4 C(NH)NH2.2HCl [Example 18] | 7 | – | – | – | – |
| Cl.N=C(N)N1CC=C(CNC(=O)[C@@H]2CCCN2C(=O)[C@@H](CC2CCCCC2)NCC(=O)O)CC1 [Example 70, HO2 CCH2 -D-Cha-Pro-4-NHCH2 -1-amidino-3,4-dehydro-piperidine.HCl] | 2 | 430 × 10^6 L/mole | 180 ng/mL | 9.8 × 10^6 L/mole | 160 ng/mL |
| Cl.N=C(N)c1cc(F)c(CNC(=O)[C@@H]2CCCN2C(=O)[C@@H](CC2CCCCC2)NCC(=O)O)c(F)c1 [Example 72, HO2 CCH2 -D-Cha-Pro-4-NHCH2 -3,5-F2 -benzamidine.HCl] | 1 | 2,300 × 10^6 L/mole | 160 ng/mL | 280 × 10^6 L/mole | 160 ng/mL |
| EtSO2 -D-Phe-Pro-p-NHCH2 -C6 H4 C(=NH)NH2.HCl [Example 23] | 7 | – | – | – | – |
| CCS(=O)(=O)N[C@H](CC1CCCCC1)C(=O)N1CCC[C@H]1C(=O)NCc1ccc(C(=N)N)cc1.Cl [Example 80, EtSO2 -D-Cha-Pro-4-NHCH2 C6 H4 C(NH)NH2.HCl] | 4 | – | 130 ng/mL | 90. × 10^6 L/mole | 40 ng/mL |
| HOOCCH2 -D-Phe-Pro-p-NHCH2 C6 H4 C(NH)NH2.HCl [Example 46] | 2. | – | – | – | – |
| Nc1ccc(CCNC(=O)[C@@H]2CCCN2C(=O)[C@@H](CC2CCCCC2)NCC(=O)O)cc1 [Example 63, HO2 CCH2 -D-Cha-Pro-4-NHCH2 CH2 C6 H4 NH2.HCl] | 680 | 0.31 × 10^6 L/mole | – | – | – |
| Cl.N=C(N)c1ccc(CNC(=O)[C@@H]2CCCN2C(=O)[C@@H](CC2CCCCC2)NCC(=O)O)nn1 [Example 69, HO2 CCH2 -D-Cha-Pro-3-NHCH2 -6-amidinopyridazine.HCl] | 5. | 340 × 10^6 L/mole | 220 ng/mL | 3.7 × 10^6 L/mole | 110 ng/mL |
| NCC1CCC(CNC(=O)[C@@H]2CCCN2C(=O)[C@@H](CC2CCCCC2)NCC(=O)O)CC1 (stereo partly drawn) [Example 79, HO2 CCH2 -D-Cha-Pro-4-NHCH2 C6 H10 CH2 NH2.HCl] | 140 | 2.0 × 10^6 L/mole | 2,400 ng/mL | 0.24 × 10^6 L/mole | 1,700 ng/mL |
| Cl.N=C(N)c1ccc(CNC(=O)[C@@H]2CCCN2C(=O)[C@@H](CC2CCCCC2)NCC(=O)O)c(F)c1 [Example 71, HO2 CCH2 -D-Cha-Pro-4-NHCH2 -3-F-benzamidine.HCl] | 1 | 1,400 × 10^6 L/mole | 150 ng/mL | 240. × 10^6 L/mole | 89 ng/mL |
| Nc1ccc(CNC(=O)[C@@H]2CCCN2C(=O)[C@@H](CC2CCCCC2)NCC(=O)O)cc1F [Example 77, HO2 CCH2 -D-Cha-Pro-4-NHCH2 -2-F-aniline.HCl] | 53 | 11 × 10^6 L/mole | 890 ng/mL | – | 1,600 ng/mL |
| Cl.N=C(N)C1=CNC(CNC(=O)[C@@H]2CCCN2C(=O)[C@@H](CC2CCCCC2)NCC(=O)O)CC1 (stereo partly drawn) [Example 68, HO2 CCH2 -D-Cha-Pro-2-NHCH2 -5-amidino-5,6-dehydro-piperidine.HCl] | 4. | 600 × 10^6 L/mole | 190 ng/mL | – | 49 ng/mL |
| Cl.Nc1cc(CNC(=O)[C@@H]2CCCN2C(=O)[C@@H](CC2CCCCC2)NCC(=O)O)ccn1 [Example 73, HO2 CCH2 -D-Cha-Pro-4-NHCH2 -2-aminopyridine.HCl] | 21 | 28 × 10^6 L/mole | 330 ng/mL | – | 340 ng/mL |
| Cl.Nc1ccc(CNC(=O)[C@@H]2CCCN2C(=O)[C@@H](CC2CCCCC2)NCC(=O)O)cn1 [Example 74, HO2 CCH2 -D-Cha-Pro-5-NHCH2 -2-aminopyridine.HCl] | 20 | 29 × 10^6 L/mole | 350 ng/mL | – | 420 ng/mL |
| CCS(=O)(=O)N[C@H](CC1CCCCC1)C(=O)N1CCC[C@H]1C(=O)NCc1ccc(N)cc1F.Cl [Example 82, EtSO2 -D-Cha-Pro-4-NHCH2 -3-F-C6 H3 NH2.HCl] | 130 | 5.0 × 10^6 L/mole | 3,000 ng/mL | – | 3,800 ng/mL |
| Cl.N=C(N)c1cc(CNC(=O)[C@@H]2CCCN2C(=O)[C@@H](CC2CCCCC2)NCC(=O)O)cs1 [Example 65, HO2 CCH2 -D-Cha-Pro-4-NHCH2 -2-amidinothiophene.HCl] | 1 | 4,500 × 10^6 L/mole | – | – | 48 ng/mL |
| Cl.Nc1ccc(CCNC(=O)[C@@H]2CCCN2C(=O)[C@@H](CC2CCCCC2)NCC(=O)O)cn1 [Example 75, HO2 CCH2 -D-Cha-Pro-5-NHCH2 CH2 -2-aminopyridine.HCl] | – | 0.45 × 10^6 L/mole | – | – | – |
| Nc1ccc(CNC(=O)[C@@H]2CCCN2C(=O)[C@@H](CC2CCCCC2)NCC(=O)O)cc1 [Example 62, HO2 CCH2 -D-Cha-Pro-4-NHCH2 C6 H4 NH2.HCl] | 54 | 7.6 × 10^6 L/mole | – | – | – |
| CCS(=O)(=O)N[C@@H](C(=O)N1[C@H](C(=O)NCc2ccc(C(=N)N)cc2)C[C@@H]2CCCC[C@@H]21)c1ccccc1 (relative stereo) [Example 44, EtSO2 -Phg-cis-Ohi-p-NHCH2 C6 H4 C(NH)NH2.HCl] | 4. | – | – | – | – |
| N=C(N)c1ccc(CNC(=O)[C@@H]2CCCN2C(=O)[C@H](NCC(=O)O)C2CCCCC2)cc1 [Example 86, HOOCCH2 -D-Chg-Pro-p-NHCH2 C6 H4 C(NH)NH2.HCl] | 4 | – | – | – | – |
| N=C(N)C1CCC(CNC(=O)[C@@H]2CCCN2C(=O)[C@@H](CC2CCCCC2)NCC(=O)O)NC1 (stereo partly drawn) [Example 67, HO2 CCH2 -D-Cha-Pro-2-NHCH2 -5-amidinopiperidine.HCl] | 34. | 11 × 10^6 L/mole | 1,300 ng/mL | – | 1,800 ng/mL |
